Laboratory results as given in the NIST ThermoML archive (doi:10.1021/je800925v).

Assay: xn = mol fraction of the nth substance listed
Conditions: Liquid

CCCCCCCCCC [decane] + CCO
Conditions	mass density [kg/m3]	viscosity [mPa·s]
273.15 K, x2 = 0.098	746.5	1.236
273.15 K, x2 = 0.198	748.3	1.257
273.15 K, x2 = 0.301	750.7	1.273
273.15 K, x2 = 0.397	753.8	1.328
273.15 K, x2 = 0.501	757.4	1.429
273.15 K, x2 = 0.602	762.7	1.523
273.15 K, x2 = 0.694	767.4	1.53
273.15 K, x2 = 0.799	774.9	1.565
273.15 K, x2 = 0.905	787.7	1.639
275.65 K, x2 = 0.098	744.6	1.181
275.65 K, x2 = 0.198	746.4	1.2
275.65 K, x2 = 0.301	748.7	1.213
275.65 K, x2 = 0.397	751.8	1.263
275.65 K, x2 = 0.501	755.4	1.351
275.65 K, x2 = 0.602	760.7	1.432
275.65 K, x2 = 0.694	765.4	1.448
275.65 K, x2 = 0.799	772.9	1.486
275.65 K, x2 = 0.905	785.7	1.557
278.15 K, x2 = 0.098	742.7	1.13
278.15 K, x2 = 0.198	744.4	1.148
278.15 K, x2 = 0.301	746.8	1.158
278.15 K, x2 = 0.397	749.9	1.203
278.15 K, x2 = 0.501	753.4	1.281
278.15 K, x2 = 0.602	758.7	1.353
278.15 K, x2 = 0.694	763.3	1.374
278.15 K, x2 = 0.799	770.9	1.412
278.15 K, x2 = 0.905	783.6	1.48
280.65 K, x2 = 0.098	740.8	1.083
280.65 K, x2 = 0.198	742.5	1.099
280.65 K, x2 = 0.301	744.8	1.107
280.65 K, x2 = 0.397	747.9	1.147
280.65 K, x2 = 0.501	751.5	1.217
280.65 K, x2 = 0.602	756.7	1.282
280.65 K, x2 = 0.694	761.3	1.305
280.65 K, x2 = 0.799	768.8	1.344
280.65 K, x2 = 0.905	781.6	1.408
283.15 K, x2 = 0.098	738.9	1.038
283.15 K, x2 = 0.198	740.6	1.053
283.15 K, x2 = 0.301	742.9	1.06
283.15 K, x2 = 0.397	746	1.096
283.15 K, x2 = 0.501	749.5	1.159
283.15 K, x2 = 0.602	754.7	1.219
283.15 K, x2 = 0.694	759.3	1.242
283.15 K, x2 = 0.799	766.8	1.28
283.15 K, x2 = 0.905	779.5	1.341
285.65 K, x2 = 0.098	737	0.9963
285.65 K, x2 = 0.198	738.7	1.01
285.65 K, x2 = 0.301	741	1.015
285.65 K, x2 = 0.397	744	1.048
285.65 K, x2 = 0.501	747.5	1.105
285.65 K, x2 = 0.602	752.7	–
